Laboratory results from US20210260225A1, “PROTECTION OF BIOLOGICALLY ACTIVE MOLECULES DURING RADIATION STERILIZATION” (Qiagen Sciences LLC, priority 2018, published 2021).

Legend:
[1] = system: white blood cells present in human whole blood samples; assay: Pokeweed mitogen activity after E-beam irradiation (IFN-γ release in whole blood, ELISA); format: cell-based; settings: for Protection of PWM stimulatory activity against E-beam (FIG. 10): 10 mM Cys or 3.0 mM G-SH, E-beam irradiated; for Protective effect on PWM activity, titration of radioprotectant (FIG. 11): 25 kGy E-beam, radioprotectant 1.0 to 10 mM
Method: Pokeweed Mitogen (PWM) samples were dissolved in DPBS at a concentration of 33.3 μg/mL and treated with various doses of E-beam irradiation in the presence or absence of 10 mM cysteine (Cys) or 3 mM glutathione (G-SH). The treated PWM samples were tested for their biological activity (ability to elicit IFNγ release during an in vitro incubation) on white blood cells present in human whole blood samples, collected from a group of six randomly selected donors, using 1.0 μg of PWM per mL of whole blood in QFN Nil tubes. Following incubation with the PWM samples in the QFN tubes, whole blood sample processing, plasma harvesting and IFN-γ ELISA were performed according to the QuantiFERON®-TB Gold Plus package insert (QFN-TB Gold Plus, QIAGEN, Inc., Germantown, Md.) except that the plasma samples were diluted 1:10 in ELISA kit Green Diluent immediately before testing on 8-point standard curves.

whole blood samples [2] = assay: Mitogenic activity of PHA-P formulation with radioprotectant additives, with or without E-Beam (IFN-γ secretion, QuantiFERON ELISA); format: cell-based, human; settings: E-Beam 0.0 kGy; additive 5.0 mM; vs untreated control without additives; 6 donors
[3] = system: white blood cells present in human whole blood samples; assay: R848 TLR agonist (NK cell stimulatory) activity after E-beam irradiation (IFN-γ release in whole blood, ELISA); format: cell-based; settings: for Protection of R848 stimulatory activity against E-beam (FIG. 6): 10 mM Cys or 3.0 mM G-SH, E-beam treated; for Protective effect on R848 activity, titration of radioprotectant (FIG. 7): 25 kGy E-beam, radioprotectant 1.0 to 10 mM
Method: R848 (resiquimod, CAS 144875-48-9) is a toll-like receptor (TLR) agonist which can stimulate biological responses by natural killer (NK) cells, and its activity can be measured in the […] tubes (QIAGEN, Inc., Germantown, Md.) QFN whole blood culture system. […] Following incubation with the R848 samples in the QFN tubes, whole blood sample processing, plasma harvesting and IFN-γ ELISA were performed according to the QuantiFERON®-TB Gold Plus package insert (QFN-TB Gold Plus, QIAGEN, Inc., Germantown, Md.) except that the plasma samples were diluted 1:10 in ELISA kit Green Diluent immediately before testing on 8-point standard curves.

whole blood samples [4] = assay: Mitogenic activity of PHA-P formulation with radioprotectant additives, with or without E-Beam (IFN-γ secretion, QuantiFERON ELISA); format: cell-based, human; settings: for Group Mean Percentage of Mitogenic Activity: additive 5.0 mM, vs untreated control without additives; for Group Mean Percentage of Mitogenic Activity / Concentration-dependent protection of PHA-P mitogenic activity (FIG. 1) / PHA-P Formulation Potency with Additives: 6 donors; for Concentration-dependent protection of PHA-P mitogenic activity (FIG. 1): E-beam 25 kGy in solution, cysteine 1.0-50 mM, melatonin 0.2-10 mM; for PHA-P Formulation Potency with Additives: no irradiation, vs same formulation without additives (100%); for PHA mitogenic activity, % of PHA control formulation (FIG. 1): E-Beam 25 kGy, control without additive and without sterilization
Method: Cysteine (closed circles) and melatonin (open circles) were dissolved in the same PHA-P formulation to various final concentrations. The mitogenic activities were determined by measuring IFN-γ secretion in whole blood samples from six blood donors using QuantiFERON® ELISA according to the manufacturer's instructions (QIAGEN, Inc., Germantown, Md.). Group mean percentages of mitogenic activity over controls (PHA-P alone without any additives) are presented.
L-cysteine was dissolved in a PHA-P formulation to 1.0-50 mM. Due to its lower water solubility, melatonin stock solution at 200 mM was first prepared in 100% ethyl alcohol. The stocks were then added into the PHA-P formulation to make final concentrations from 0.2-10 mM. After the E-Beam treatment, potencies of PHA-P formulations were tested with whole blood samples and mitogenic activity was determined using QuantiFERON® ELISA (QIAGEN, Inc., Germantown, Md.) according to the manufacturer's instructions.

[5] = system: white blood cells present in human whole blood samples; assay: Concanavalin A activity after E-beam irradiation (IFN-γ release in whole blood, ELISA); format: cell-based; settings: for Protection of ConA stimulatory activity against E-beam (FIG. 12): 10 mM Cys or 3.0 mM G-SH, E-beam irradiated; for Protective effect on ConA activity, titration of radioprotectant (FIG. 13): 25 kGy E-beam, radioprotectant 1.0 to 10 mM
[6] = system: T-cells present in a whole human blood sample; assay: Anti-CD3 antibody T-cell stimulatory activity after E-beam irradiation (IFN-γ secretion in whole blood, ELISA); format: cell-based; settings: for Protection of anti-CD3 antibody stimulatory activity against E-beam (FIG. 4): 10 mM Cys or 3.0 mM G-SH in DPBS, E-beam doses up to 25 kGy; for Protective effect on anti-CD3 activity, titration of radioprotectant (FIG. 5): 25 kGy E-beam, radioprotectant 1.0 to 10 mM
Method: Anti-CD3 antibody samples were dissolved in Dulbecco's phosphate-buffered saline (DPBS) and diluted to a concentration of 66.7 μg/mL, then exposed to various doses of E-beam irradiation in the presence or absence of 10 mM cysteine (Cys) or 3 mM glutathione (G-SH). The treated antibody samples were tested for their T-cell stimulatory activity by determining their ability to induce interferon-gamma (IFNγ) secretion by T-cells present in a whole human blood sample obtained from a group of six randomly selected donors, using 0.10 μg of anti-CD3 antibody per mL of whole blood in QuantiFERON® (QFN) Nil tubes (QIAGEN, Inc., Germantown, Md.). Following the incubation of the whole blood samples with the anti-CD3 antibody in the QFN Nil tubes, blood processing, plasma harvesting and IFN-γ detection by enzyme-linked immunosorbent assay (ELISA) were performed according to the manufacturer's instructions as found in the QuantiFERON®-TB Gold Plus package insert (QFN-TB Gold Plus, QIAGEN, Inc., Germantown, Md.) except that the plasma samples were diluted 1 to 10 in ELISA kit Green Diluent immediately before testing on 8-point standard curves.

[7] = system: white blood cells present in human whole blood samples; assay: QFM (anti-CD3 + R848) stimulatory activity after E-beam irradiation (IFN-γ release in whole blood, ELISA); format: cell-based; settings: for Protection of stimulatory activities of anti-CD3 and R848 against E-beam (FIG. 8): 10 mM Cys or 3.0 mM G-SH, E-beam irradiated; for Protective effect on combined anti-CD3 and R848 activity, titration of radioprotectant (FIG. 9): 25 kGy E-beam, radioprotectant 1.0 to 10 mM
Method: Following incubation with the QFM samples in the QFN tubes, whole blood sample processing, plasma harvesting and IFN-γ ELISA were performed according to the QuantiFERON®-TB Gold Plus package insert (QFN-TB Gold Plus, QIAGEN, Inc., Germantown, Md.) except that the plasma samples were diluted 1:10 in ELISA kit Green Diluent immediately before testing on 8-point standard curves.

whole blood samples [8] = assay: Mitogenic potency of spray-dried PHA in QuantiFERON Mitogen Control blood collection tubes after radiation sterilization (IFN-γ by QuantiFERON ELISA); format: cell-based, human; settings: for PHA mitogenic response, % of control (FIG. 2): control: no radioprotectant, no sterilization, 8 donors
whole blood samples [9] = assay: Storage stability of mitogenic activity of radiation sterilized spray-dried PHA tubes with or without cysteine; format: cell-based, human; settings: 5.0 mM cysteine; E-Beam sterilized; subsequent time points extending beyond eight months post-production
Method: QuantiFERON® Mitogen Control blood collection tubes were produced with and without cysteine (5.0 mM final concentration in liquid mitogen formulation) and sterilized with E-Beam radiation. Mitogen tubes' biological (mitogenic) activities were tested over time and are presented as % potency differences of the activity of mitogen tubes formulated with cysteine compared to mitogen tubes formulated without cysteine. Each dot in the figure represents the % activity of group mean at each time point.
Mitogen (spray-dried PHA) tubes were produced and radiation sterilized as described in Example 1, comparing PHA preparations without added cysteine to PHA preparations containing 5.0 mM cysteine. The long-term storage stability of the radioprotective effect of cysteine on the mitogenic activity of spray-dried PHA was also assessed.
Following spray-drying and radiation sterilization the tubes were held for various time periods before being tested for mitogenic activity as described previously.

[10] = spray-dried tubes after radiation sterilization, cysteine 5 mM where present

Compound | Protection of PWM stimulatory activity against E-beam (FIG. 10) [1] | Protective effect on PWM activity, titration of radioprotectant (FIG. 11) [1] | Group Mean Percentage of Mitogenic Activity (whole blood samples [2]) | Protection of R848 stimulatory activity against E-beam (FIG. 6) [3] | Protective effect on R848 activity, titration of radioprotectant (FIG. 7) [3] | Group Mean Percentage of Mitogenic Activity (whole blood samples [4]; E-Beam 8.30 kGy) | Group Mean Percentage of Mitogenic Activity (whole blood samples [4]; E-Beam 16.7 kGy) | Group Mean Percentage of Mitogenic Activity (whole blood samples [4]; E-Beam 25.0 kGy) | Protection of ConA stimulatory activity against E-beam (FIG. 12) [5] | Protective effect on ConA activity, titration of radioprotectant (FIG. 13) [5] | Protection of anti-CD3 antibody stimulatory activity against E-beam (FIG. 4) [6] | Protective effect on anti-CD3 activity, titration of radioprotectant (FIG. 5) [6] | Protection of stimulatory activities of anti-CD3 and R848 against E-beam (FIG. 8) [7] | Protective effect on combined anti-CD3 and R848 activity, titration of radioprotectant (FIG. 9) [7] | PHA mitogenic response, % of control (FIG. 2) (whole blood samples [8]; [10]) | Concentration-dependent protection of PHA-P mitogenic activity (FIG. 1) (whole blood samples [4]) | also measured
N[C@@H](CCC(=O)N[C@@H](CS)C(=O)NCC(=O)O)C(=O)O [Glutathione Reduced, γ-L-Glutamyl-L-cysteinylglycine] | preserved | dose-dependent increase | 116% | retained the stimulatory activities | dose-dependent increase | 53% | 23% | 10% | preserved | dose-dependent increase | maintained stimulatory activities | dose-dependent increase | preserved | dose-dependent increase |  |  | Group Mean Percentage of Mitogenic Activity (whole blood samples [4]; E-Beam 8.30 kGy, listed as reduced glutathione): 53%
phytohemagglutinin [PHA] |  |  |  |  |  |  |  |  |  |  |  |  |  |  | 56% |  | Mitogenic Potency after Tx, E-Beam (whole blood samples [8]; E-beam 16.6-30 kGy, group mean of 11 donors vs same lot of tubes without treatment (100%)): about 55%
COc1ccc2[nH]cc(CCNC(C)=O)c2c1 [Melatonin, N-acetyl-5-methoxy tryptamine, reference compound] |  |  | 111% |  |  | 53% | 26% | 7.7% |  |  |  |  |  |  |  | dose dependent protection | Group Mean Percentage of Mitogenic Activity (whole blood samples [4]; E-Beam 8.30 kGy, listed as melatonin): 53%; PHA-P Formulation Potency with Additives (whole blood samples [4]; additive 10 mM): 98.6%; PHA-P Formulation Potency with Additives (whole blood samples [4]; additive 10 mM, listed as melatonin): comparable to unsupplemented PHA preparations
N[C@@H](CS)C(=O)O (stereo in doubt) [L-Cysteine, 2-amino-3-sulfhydrylpropanoic acid] | preserved | dose-dependent increase |  | retained the stimulatory activities | dose-dependent increase |  |  |  | preserved | dose-dependent increase | maintained stimulatory activities | dose-dependent increase | preserved | dose-dependent increase |  |  | 
N[C@@H](CS)C(=O)O [L-Cysteine, 2-amino-3-sulfhydrylpropanoic acid] |  |  | 99% |  |  | 68% | 43% | 26% |  |  |  |  |  |  | 72% | dose dependent protection | PHA mitogenic response, % of control (FIG. 2) (whole blood samples [8]; spray-dried tubes, cysteine 5 mM, no radiation sterilization): 94.8%; Group Mean Percentage of Mitogenic Activity (whole blood samples [4]; E-Beam 8.30 kGy, listed as L-cysteine): 68%; PHA mitogenic activity, % of PHA control formulation (FIG. 1) (whole blood samples [4]; additive 1.0 mM): 5.9%; PHA mitogenic activity, % of PHA control formulation (FIG. 1) (whole blood samples [4]; additive 10 mM): 38%; PHA-P Formulation Potency with Additives (whole blood samples [4]; additive 50 mM): 101%; PHA-P Formulation Potency with Additives (whole blood samples [4]; additive 50 mM, listed as cysteine): comparable to unsupplemented PHA preparations; Mitogenic activity of tubes with cysteine compared to tubes without cysteine (FIG. 3) (whole blood samples [9]): retained relatively higher levels of mitogenic activity
